Two compounds from US11319601B2, “Cell based assay” (Medical Diagnostic Laboratories, L.L.C., priority 2017, dated 2022) can be followed below.

In experiment [1] the target is T1, T862A HER2 receptor (Homo sapiens, UniProt P04626, T862A).
T1 construct: expressed in transfected cells; host or cells: HER2 reporter cells (clone #1)
Briefly: HER2 reporter cells transfected with linear expression cassette of T862A HER2, all-in-one method. In kind it is cell-based. As to conditions: 24 hours post-transfection. An excerpt: T862A corresponds to a missense mutation of HER2, which changes Threonine (T) into Alanine (A) at amino acid position of 862. In order to functionally characterize this mutation, PCR-mediated overlapping extension was employed to construct a linear expression cassette of HER2 carrying this mutation. The linear expression cassette of mutant HER2 DNA was transfected into the reporter cells followed by treatment with NRG1 and its inhibitors using the “all-in-one” method. The luciferase reporter activity was measured 24 hours post-transfection.

Experiment [2] deals with T2, P780ins HER2 receptor (Homo sapiens, UniProt P04626, INS780GSP).
T2 construct: expressed in transfected cells; host or cells: HER2 reporter cells (clone #1)
Briefly: HER2 reporter cells transfected with linear expression cassette of P780ins HER2, all-in-one method. In kind it is cell-based. An excerpt: P780ins corresponds to an insertion mutation of HER2, which adds 3 amino acids (GSP) after the amino acid position of […] (Proline—P). In order to functionally characterize this mutation, PCR-mediated overlapping extension was employed to construct linear expression cassette of HER2 carrying this insertion. The linear expression cassette of mutant HER2 DNA was first transfected into the reporter cells followed by treatment with NRG1 and its inhibitors using the “all-in-one” method. The luciferase reporter activity was measured 24 hours post-transfection.

The target in experiment [3] is HER2 receptor (Homo sapiens, UniProt P04626). Briefly: Luciferase reporters (ERK-Luc, FRE-Luc, JNK-Luc, NFkB-Luc) in HEK293 cells overexpressing HER2, treated with lapatinib. In kind it is cell-based. As to conditions: 10 nM, 4 hours. A general note: In a reporter assay the amount or activity of a reporter protein is the signal.
Method: In order to identify a reporter to measure the activity of HER2 receptor, the HEK293 cells were transfected with different reporter constructs, including ERK-Luc, FRE-Luc, JNK-Luc and NFkB-Luc, in the absence or presence of HER2 expression plasmid. After 24 hours, the luciferase reporter activity of the transfected cells was measured by Nano-Glo® Luciferase Assay (Promega). […] The luciferase reporter activity of the transfected cells was measured by Nano-Glo® Luciferase Assay (Promega). […] For cell transfection experiments, HEK293 cells (ATCC) were plated at density of 4-8×10^4 cells per well (96-well plates) or 1-2×10^4 cells per well (384-well plates) in phenol red-free MEM containing 10% FBS and antibiotics. Either DNA plasmid or linear DNA was mixed with TransIT-293 transfection reagent (Mirus Bio LLC). Once cells were trypsinized, DNA transfection mix was added. The cells were then incubated for 24 or 48 hours.
The target in experiment [4] is T3, L755S HER2 receptor (Homo sapiens, UniProt P04626, L755S).
T3 construct: expressed in transfected cells; host or cells: HER2 reporter cells (clone #1)
As to the kind of experiment: HER2 reporter cells transfected with linear expression cassette of L755S HER2, all-in-one method. Format: cell-based. As to conditions: 24 hours post-transfection. An excerpt:
L755S corresponds to a missense mutation of HER2, which changes leucine (L) into serine (S) at amino acid position of 755. In order to functionally characterize this mutation, PCR-mediated overlapping extension was employed to construct linear expression cassette of HER2 carrying this mutation. The linear expression cassette of mutant HER2 DNA was first transfected into the reporter cells followed by treatment with NRG1 and its inhibitors using the “all-in-one” method. The luciferase reporter activity was measured 24 hours post-transfection.

Experiment [5] has as its system HER1 and HER2 receptors. Briefly: JNK-Luc reporter in HEK293 cells with HER1 and wild-type or kinase-dead HER2, treated with EGF. As to conditions: HER1 plus wild-type or kinase-dead HER2. In kind it is cell-based, human. The method, then:
In order to characterize the specificity of activation of JNK-Luc reporter upon treatment of HER1 ligand, JNK-Luc was co-transfected with expression plasmids of HER1 and wild-type or kinase-dead HER2 receptors into the HEK293 cells. After 24 hours, the transfected cells were treated with EGF (HER1 receptor ligand). The luciferase reporter activity of the transfected cells was measured by Nano-Glo® Luciferase Assay (Promega). In FIG. 12, no difference was found between the cells transfected with wild-type HER2 and kinase-dead HER2.
(§1) For cell transfection experiments, HEK293 cells (ATCC) were plated at density of 4-8×10^4 cells per well (96-well plates) or 1-2×10^4 cells per well (384-well plates) in phenol red-free MEM containing 10% FBS and antibiotics. Either DNA plasmid or linear DNA was mixed with TransIT-293 transfection reagent (Mirus Bio LLC). Once cells were trypsinized, DNA transfection mix was added. The cells were then incubated for 24 or 48 hours.

In experiment [6] the test system is HER1, HER2 and HER3 receptors. As to the kind of experiment: ERK-Luc, JNK-Luc and NFkB-Luc reporters in HEK293 cells co-transfected with HER1, HER2 and HER3, treated with ligand. As to conditions: ligand 6 hours; HER1, HER2, HER3 co-transfected HEK293. Format: cell-based, human. The method, then:
In order to identify reporters to measure the activity of HER2 receptor, expression plasmids of HER1, HER2 and HER3 were co-transfected with different reporter constructs, including ERK-Luc, JNK-Luc and NFkB-Luc, into the HEK293 cells. After 24 hours, the transfected cells were treated with either EGF (HER1 receptor ligand) or NRG1 (HER3 receptor ligand) for 6 hours. The luciferase reporter activity of the transfected cells was measured by Nano-Glo® Luciferase Assay (Promega). […] JNK-Luc reporter was activated when the transfected cells were treated with either HER1 or HER3 ligand (FIG. 11B).
as §1

For the compound `CS(=O)(=O)CCNCc1ccc(-c2ccc3ncnc(Nc4ccc(OCc5cccc(F)c5)c(Cl)c4)c3c2)o1` [Lapatinib], the “reporter activity after HER2 inhibitor in the presence of NRG1” value in experiment [1] is reported as “did not respond”; in experiment [2] (all-in-one method, 24 hours post-transfection), “very minor reduction of reporter activity”; in experiment [4], “did not respond”. The “activity retained compared to the cells without the treatment of inhibitor” value in experiment [2] (high concentration of lapatinib, in the presence of NRG1) is recorded as “more than 75%”. In addition, the “inhibition of increased reporter activities upon HER2 expression” value in experiment [3] was “did not inhibit”.
Consider “EGF: HER1 receptor ligand (NSDSECPLSHDGYCLHDGVCMYIEALDKYACNCVVGYIGERCQYRDLKWWELR)”, for which the JNK-Luc reporter activation result in experiment [5] is “effectively activated”. Besides, in experiment [6], the JNK-Luc reporter activation result is “activated” and the NFkB-Luc reporter activation result was “no activation”.
